# According to patent US5399565A, “Pyrazolidinone CCK and gastrin antagonists and pharmaceutical formulations therof” (priority 1993, dated 1995):
# How the values were obtained:
# brain CCK receptor = biological target: T1, brain CCK receptor (Mus musculus, UniProt P56481); assay: CCK receptor binding, mouse brain membranes (125I-CCK-8 sulfate); details: for inhibition at 10 µM / inhibition at 1 µM: read-out: Brain Percent Inhibition; for IC50: mouse brain membranes, read-out: Brain IC50
# T1 construct: from tissue; host or cells: forebrain membranes of male CF-1 mice
# T1 sequence (P56481 1-453): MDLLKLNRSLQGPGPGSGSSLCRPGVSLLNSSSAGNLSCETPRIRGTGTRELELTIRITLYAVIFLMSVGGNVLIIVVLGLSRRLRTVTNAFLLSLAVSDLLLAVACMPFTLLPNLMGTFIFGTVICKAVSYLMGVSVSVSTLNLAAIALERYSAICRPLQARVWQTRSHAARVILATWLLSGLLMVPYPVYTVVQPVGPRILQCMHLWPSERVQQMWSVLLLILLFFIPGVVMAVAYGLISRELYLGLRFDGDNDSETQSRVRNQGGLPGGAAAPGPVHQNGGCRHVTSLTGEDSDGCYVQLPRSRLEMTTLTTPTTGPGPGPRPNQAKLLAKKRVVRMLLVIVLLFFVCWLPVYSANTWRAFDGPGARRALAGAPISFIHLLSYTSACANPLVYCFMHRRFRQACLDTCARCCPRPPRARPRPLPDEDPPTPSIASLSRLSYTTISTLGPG
# Procedure: Brain CCK receptor binding was performed using mouse brain membranes according to the method of Chang and Lotti (Proc. Natl. Acad. Sci. 83: 4923-4926, 1986). Male CF-1 mice, 23-25 g were sacrificed by cervical dislocation, the forebrain removed and placed in ice cold 50 mM Tris buffer, pH 7.4. The tissue was homogenized in 100 volumes of the Tris buffer with a Brinkman Polytron or Tekmar Tissumizer and then centrifuged at 40,000 g for 10 min. Pellets were resuspended in Tris buffer, centrifuged as above and then resuspended in 100 volumes of assay buffer, pH 6.5 (20 mM N-2-hydroxyethyl-piperazine-N'-2-ethane sulfonic acid (HEPES), 1 mM ethylene glycol his (2-aminoethyl ether-N,N,N',N'-tetraacetic acid) (EGTA), 5 mM MgCl2, 130 mM NaCl, and 0.25 mg/ml bacitracin). The binding assay consisted of 50 μL of compound (or buffer for total binding), 50 μL of ^125 I-CCK-8 sulfate (20 pM) (Amersham IM- 159), 200 μL of assay buffer and 200 μL of homogenate (80-120 μg protein). The samples were incubated at room temperature (25°) for 2 hours, and they were then filtered through GF/B glass fiber filters (soaked in wash buffer for 2 hours before use) using a 48 well Brandel cell harvester designed for receptor binding. The filters were washed twice with 3 ml of 50 mM Tris buffer, pH 7.4, containing 0.01% BSA and then counted for radioactivity in plastic tubes with a Micromedic 10/600 automatic gamma counter.
# Compounds were dissolved in dimethyl sulfoxide (DMSO) at a concentration of 10 mM and then further diluted with assay buffer. The concentration of DMSO in the incubation was 0.1% or less and had no effect on the assay at that level. IC-50 values of displacement curves were determined using 7 concentrations of compound and were calculated using the ALLFIT computer program of DeLean, Munson and Rodbard (Am. J. Physiol. 235: E97-E102, 1978). Non-specific binding was determined as the displacement of the radioligand by 100 nM CCK-8 sulfate.
# [1] = biological target: T2, peripheral type CCK receptors in rat pancreas (Rattus norvegicus, UniProt P30551); assay: Binding to peripheral type CCK receptors in rat pancreas (3H-L-364,718); details: at 10 μM; read-out: Pancreas Percent Inhibition
# T2 construct: Pancreas was obtained from male Sprague-Dawley rats; from tissue; host or cells: pancreas membranes of male Sprague-Dawley rats
# T2 sequence (P30551 1-444): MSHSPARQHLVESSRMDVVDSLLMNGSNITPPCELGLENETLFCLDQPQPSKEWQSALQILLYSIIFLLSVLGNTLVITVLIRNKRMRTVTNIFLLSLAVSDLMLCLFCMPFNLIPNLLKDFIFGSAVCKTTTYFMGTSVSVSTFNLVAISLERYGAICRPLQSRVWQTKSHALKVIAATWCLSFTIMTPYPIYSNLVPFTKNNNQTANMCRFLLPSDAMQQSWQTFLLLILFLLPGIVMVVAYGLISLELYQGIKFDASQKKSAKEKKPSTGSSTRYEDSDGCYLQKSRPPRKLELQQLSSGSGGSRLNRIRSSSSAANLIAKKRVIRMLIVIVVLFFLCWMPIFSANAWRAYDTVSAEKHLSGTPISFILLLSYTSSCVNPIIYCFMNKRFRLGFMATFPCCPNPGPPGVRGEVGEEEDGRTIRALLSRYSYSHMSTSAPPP
# Procedure: Binding to peripheral type CCK receptors in rat pancreas was done according to the method of Chang et al. (Mol. Pharmacol. 30: 212-217, 1986) using ^3 H-L364, 718. Pancreas was obtained from male Sprague-Dawley rats, 150-200 g, after decapitation, and dissected free from adipose and connective tissue. The tissue was homogenized in 30 volumes of 50 mM Tris buffer, pH 7.4 and centrifuged at 40,000 g for 10 min. The tissue pellet was washed by resuspension and centrifugation as described above. The final pellet was suspended in 500 volumes of assay buffer (50 mM Tris buffer, pH 7.4, 5 mM MgCl2, 0.14 mg/ml bacitracin, and 5 mM dithiothreitol) to give a protein concentration of 30-60 μg/200 μl . Reagent volumes for the assay were the same as those used for CCK binding to brain membranes. Tritium labeled L-364,718 (Dupont NEN, NET-971) was used as the ligand at a concentration of 0.4-0.6 nM. The samples were incubated 1 hour at room temperature and then filtered as described for the CCK-brain receptor. Scintillation cocktail was added to the filters which were counted for radioactivity using a Micromedic Taurus automatic liquid scintillation counter.
# Compound samples were prepared and IC-50 values were determined as described for the CCK-brain experiments. Non-specific binding was that amount left bound to the filters after adding 100 nM L-364,718.
inhibition at 10 µM (brain CCK receptor) [%],inhibition at 10 µM [1] [%],IC50 (brain CCK receptor) [µM],inhibition at 1 µM (brain CCK receptor) [%],Compound
60,40,–,–,O=C1NN(C(=O)c2ccc(Cl)c(Cl)c2)[C@H](c2ccccc2)[C@H]1c1ccccc1 (relative stereo) [Example 75]
55,4,–,–,O=C1NN(C(=O)Cc2cccc(C(F)(F)F)c2)[C@H](c2ccccc2)[C@H]1c1ccccc1 (relative stereo) [Example 76]
56,20,–,–,O=C1NN(C(=O)Cc2ccc(C(F)(F)F)cc2)[C@H](c2ccccc2)[C@H]1c1ccccc1 (relative stereo) [Example 77]
–,49,1.8,–,O=C1NN(C(=O)Cc2ccc(Cl)c(Cl)c2)[C@@H](c2ccccc2)[C@@H]1c1ccccc1 (relative stereo) [Example 78]
43,9,–,–,O=C1NN(C(=O)Oc2ccccc2)[C@@H](c2ccccc2)[C@@H]1c1ccccc1 (relative stereo) [Example 79]
–,9,5.2,–,O=C1NN(C(=O)Oc2ccc([N+](=O)[O-])cc2)[C@@H](c2ccccc2)[C@@H]1c1ccccc1 (relative stereo) [Example 80]
95,59,–,–,O=C1NN(C(=O)Sc2ccc(Br)cc2)[C@@H](c2ccccc2)[C@@H]1c1ccccc1 (relative stereo) [Example 81]
–,12,–,37,O=C(Nc1ccc(C(F)(F)F)cc1)N1N[C@@H](c2ccccc2)[C@H](c2ccccc2)C1=O (relative stereo) [Example 83]
70,26,–,–,O=C1NN(c2nc3ccccc3s2)[C@@H](c2ccccc2)[C@@H]1c1ccccc1 (relative stereo) [Example 84]
78,19,–,–,O=C1NN(c2nc3ccc(Br)cc3s2)[C@@H](c2ccccc2)[C@@H]1c1ccccc1 (relative stereo) [Example 85]
47,23,–,–,O=C1NN(c2nc3ccccc3o2)[C@@H](c2ccccc2)[C@@H]1c1ccccc1 (relative stereo) [Example 87]
40,37,–,–,O=C1NN(C(=O)Nc2cccnc2)[C@@H](c2ccccc2)[C@@H]1c1ccccc1 (relative stereo) [Example 88]
34,21,–,–,O=C1NN(C(=O)Nc2ccncc2)[C@@H](c2ccccc2)[C@@H]1c1ccccc1 (relative stereo) [Example 89]
–,63,–,45,O=C1NN(C(=O)Nc2cccc3ccccc23)[C@@H](c2ccccc2)[C@@H]1c1ccccc1 (relative stereo) [Example 90]
55,18,–,–,O=C1NN(C(=O)NC2CCCCC2)[C@@H](c2ccccc2)[C@@H]1c1ccccc1 (relative stereo) [Example 95]
42,13,–,–,O=C1NN(C(=O)NCc2ccccc2)[C@@H](c2ccccc2)[C@@H]1c1ccccc1 (relative stereo) [Example 96]
74,33,–,–,O=C1NN(C(=O)NCc2ccccc2Cl)[C@@H](c2ccccc2)[C@@H]1c1ccccc1 (relative stereo) [Example 98]
–,86,3.3,–,O=C1NN(C(=O)NCc2cccc(Cl)c2)[C@@H](c2ccccc2)[C@@H]1c1ccccc1 (relative stereo) [Example 99]

inhibition at 10 µM (brain CCK receptor) [%],inhibition at 10 µM [1] [%],IC50 (brain CCK receptor) [µM],inhibition at 1 µM (brain CCK receptor) [%],Compound
–,78,2.2,–,O=C1NN(C(=O)NCc2ccc(Cl)cc2)[C@@H](c2ccccc2)[C@@H]1c1ccccc1 (relative stereo) [Example 100]
–,78,0.87,–,CC(NC(=O)N1NC(=O)[C@@H](c2ccccc2)[C@@H]1c1ccccc1)c1ccc(Br)cc1 (relative stereo) [Example 103]
–,43,0.49,–,O=C1NN(C(=O)NCCc2ccccc2)[C@@H](c2ccccc2)[C@@H]1c1ccccc1 (relative stereo) [Example 105]
86,61,–,–,O=C1NN(C(=O)NCCc2ccc(Cl)cc2)[C@@H](c2ccccc2)[C@@H]1c1ccccc1 (relative stereo) [Example 107]
–,87,1.3,–,O=C1NN(C(=O)NCCCc2ccccc2)[C@@H](c2ccccc2)[C@@H]1c1ccccc1 (relative stereo) [Example 108]
–,11,6,–,O=C1NN(C(=O)N2CCc3ccccc3C2)[C@@H](c2ccccc2)[C@@H]1c1ccccc1 (relative stereo) [Example 109]
–,70,4.3,–,O=C1CC(c2ccc(-c3ccccc3)cc2)N(C(=O)Nc2cccc(Cl)c2Cl)N1 (stereo not shown) [Example 68]
–,12,0.5,–,CCCCC1C(=O)NN(C(=O)Nc2ccc(Br)cc2)C1c1ccccc1 (stereo not shown) [Example 69]
–,36,–,13,CCCCC1C(c2ccccc2)C(=O)NN1C(=O)Nc1cccc(C(F)(F)F)c1 (stereo not shown) [Example 70]
–,39,1.2,–,CCCCC1C(c2ccccc2)C(=O)NN1C(=O)Nc1ccc(C(F)(F)F)cc1 (stereo not shown) [Example 71]
88,22,–,–,O=C1NN(C(=O)Nc2ccc(Br)cc2)C(Cc2ccccc2)C1c1ccccc1 (stereo not shown) [Example 72]
16,20,–,–,CC(C)C1C(c2ccccc2)C(=O)NN1C(=O)Nc1ccc(Br)cc1 (stereo not shown) [Example 73]
–,7,1.3,–,C[C@H](NC(=O)N1NC(=O)C(c2ccccc2)C1c1ccccc1)c1ccccc1 (stereo partly shown) [Example 101]
–,11,4.7,–,C[C@@H](NC(=O)N1NC(=O)C(c2ccccc2)C1c1ccccc1)c1ccccc1 (stereo partly shown) [Example 102]
–,47,0.9,–,C[C@@H](NC(=O)N1NC(=O)C(c2ccccc2)C1c1ccccc1)c1cccc2ccccc12 (stereo partly shown) [Example 104]
–,21,–,25,CN(C)c1ccc(C2C(c3ccccc3)C(=O)NN2C(=O)Nc2ccc(C(F)(F)F)cc2)cc1 (stereo not shown) [Example 113]
–,64,1.2,–,O=C1NN(C(=O)Nc2ccc(Br)cc2)C(c2ccc([N+](=O)[O-])cc2)C1c1ccccc1 (stereo not shown) [Example 119]
